Laboratory results from ChEMBL document CHEMBL5038569, “Targeting RECQL5 Functions, by a Small Molecule, Selectively Kills Breast Cancer in Vitro and in Vivo” (J Med Chem, 2021).
The source made the active and inactive calls. No cut-off for these calls is given here.

Legend:
MCF7 [1] = assay: Cytotoxicity against human MCF7 cells expressing wild type RECQL5 assessed as cell growth inhibition measured after 72 hrs by MTT assay; type: functional; conditions: dose 6-50 µM
MCF7 [2] = assay: Cytotoxicity against RECQL5 knock out human MCF7 cells assessed as cell growth inhibition measured after 72 hrs by MTT assay; type: functional; conditions: dose 6-50 µM
Homo sapiens = species: Homo sapiens; assay: Inhibition of full length His-tagged human RECQL5 expressed in Escherichia coli incubated for 15 mins by fluorescence based assay

inhibition (Homo sapiens)	Structure (SMILES)	Activity (MCF7 [1])	Activity (MCF7 [2])
–	COc1ccc(NC(=O)N[C@@H](c2ccccc2)c2nnc(SCc3ccccc3)o2)cc1	inactive	inactive
–	Cc1ccc(NC(=O)N[C@@H](c2ccccc2)c2nnc(SCc3ccccc3)o2)cc1	Dose-Dependent Effect	Dose-Dependent Effect
–	O=C(NCc1nnc(SCc2ccccc2)o1)Nc1cc(C(F)(F)F)cc(C(F)(F)F)c1	Dose-Dependent Effect	Dose-Dependent Effect
–	Cc1ccc(NC(=O)N[C@@H](Cc2ccccc2)c2nnc(SCc3ccccc3)o2)cc1	Dose-Dependent Effect	Dose-Dependent Effect
–	O=C(Nc1ccc([N+](=O)[O-])cc1)N[C@@H](c1ccccc1)c1nnc(SCc2ccccc2)o1	Dose-Dependent Effect	Dose-Dependent Effect
inactive	O=C(Nc1cc(C(F)(F)F)cc(C(F)(F)F)c1)N[C@@H](Cc1ccccc1)c1nnc(SCc2ccccc2)o1	Dose-Dependent Effect	Dose-Dependent Effect
–	COc1ccc(NC(=O)N[C@@H](Cc2ccccc2)c2nnc(SCc3ccccc3)o2)cc1	Dose-Dependent Effect	Dose-Dependent Effect
–	O=C(Nc1ccc([N+](=O)[O-])cc1)N[C@@H](Cc1ccccc1)c1nnc(SCc2ccccc2)o1	Dose-Dependent Effect	Dose-Dependent Effect
